Source: PubChem BioAssay AID1996
≈ marks a conversion by molar mass, not a printed value.

Details: buffer; pH 7.4; 200.0 µM

| SMILES | solubility kinetic [µg/mL] |
| --- | --- |
| COc1cccc(C=NCCCN=Cc2cccc(OC)c2O)c1O | > 51.4 |
| CCN1CCC(NCCc2ccc(F)cc2)CC1 | 24.9 (≈ 99.5 µM) |
| CCCC[N+]1(C)[C@@H]2CC(OC(=O)[C@H](CO)c3ccccc3)C[C@H]1[C@@H]1O[C@@H]12.[Br-] (stereo not given in full) | > 66.1 |
| Cc1cc(N/C=C(\C#N)S(=O)(=O)c2ccc(Cl)cc2)nc(C)n1 | 12.9 (≈ 37 µM) |
| CC1(C)OC(=O)N(CCC(=O)Nc2cccc(F)c2)C1(C)O (stereo not given) | > 46.5 |
| COc1cccc(C(=O)OCC(=O)N2CCC(Cc3ccccc3)CC2)c1OC | 28.1 (≈ 70.7 µM) |
| Clc1nssc1=Nc1ccccc1 | 22.3 (≈ 97.5 µM) |
| CCc1noc(C)c1C(=O)OCC(=O)NC(=O)c1ccccc1 | > 47.4 |
| O=C(CN1C(=O)C(=O)N(Cc2ccco2)C1=O)NC1CCCCC1 | 45.8 (≈ 137 µM) |
| O=C(Nc1ccc2c(c1)OCCO2)C1CCCC1 | > 37.1 |
| O=C(NCCCNC(=O)c1ccccn1)c1ccc(Cl)cc1 | 39 (≈ 123 µM) |
| COc1ccc(S(=O)(=O)NCCC(=O)OCC(=O)NC2CC2)cc1 | > 53.5 |
| N#Cc1ccc(S(=O)(=O)N2CCc3[nH]c4ccc(F)cc4c3C2)cc1 | < 0.3 |
| CCCNC(=O)[C@H](C)NC(=O)c1ccc(Br)cc1 | > 47 |
| COc1cccc(OCCCn2ccnc2)c1.Cl | 33.1 |
| O=C(NCc1ccccn1)C(=O)Nc1cc2c3c(c1)CC(=O)N3CCC2 | > 52.6 |
| O=C(O)c1ccc(NCc2cccs2)cc1 | > 35 |
| CC(OC(=O)c1ccc(NC(N)=O)cc1)C(=O)Nc1ccc2c(c1)OCCO2 (stereo not given) | > 57.8 |
| O=C1C2CCN(CC2)C12CC2c1ccc(C(F)(F)F)cc1 (stereo not given) | 23.9 (≈ 80.9 µM) |

| SMILES | solubility kinetic [µg/mL] |
| --- | --- |
| Cc1nnc(SCC(=O)Nc2sccc2C#N)s1 | > 44.5 |
| COc1ccc(NC(=S)Nc2ccc(N(C)C(C)=O)cc2)cc1 | > 49.4 |
| Cl.OC(CNC1CCCC1)COc1ccc(F)cc1 (stereo not given) | 36.6 |
| Cc1cccnc1NC(=S)Nc1ccc(F)cc1F | 8 (≈ 28.6 µM) |
| O=C1CCC(C(=O)Nc2ccccc2N2CCCC2)=NN1 | > 42.9 |
| COC(=O)CSc1nc(C)c2c(n1)CCCC2 | 37.6 (≈ 149 µM) |
| CC1CC1C(=O)OCC(=O)Nc1cc(S(=O)(=O)N2CCCCC2)ccc1Cl (stereo not given) | 31.1 (≈ 75 µM) |
| Cc1cc(OCC(=O)Nc2ccccc2C)no1 | > 36.9 |
| CC(C)c1onc(C(=O)N2CCN(c3ccccc3)CC2)c1[N+](=O)[O-] | 1.9 (≈ 5.52 µM) |
| CCOC(=O)/C(C#N)=C\C1=C(N2CCOCC2)CC(C)(C)OC1 | > 48.1 |
| O=C1NCCN1CCNS(=O)(=O)c1ccccc1[N+](=O)[O-] | > 47.1 |
| O=C(O)c1ccc(CN2C(=O)c3ccc(C(=O)O)cc3C2=O)cc1 | > 48.8 |
| O=C(CN1C(=O)COc2ccccc21)NCCN1CCOCC1 | > 47.9 |
| O=C(CC1(CC(=O)N2CCOCC2)CCCC1)Nc1ccccc1 | > 49.6 |
| Cc1sc2nc(-c3cccs3)oc(=O)c2c1C | < 0.6 |
| CC(C)(O)C(=O)NNC(=S)NCc1ccco1 | > 38.6 |
| Cc1cc(S(=O)(=O)N2CCN(C(=O)c3ccco3)CC2)ccc1F | > 52.9 |
| NC1=C(Br)C(=O)c2ccccc2C1=O | 37.3 (≈ 148 µM) |
| O=C(OCc1cncs1)c1ccccc1 | > 32.9 |

The next lines start with the values.

| solubility kinetic [µg/mL] | SMILES |
| --- | --- |
| > 47.9 | CCn1c(SCC(=O)Nc2ccc(C)cc2)nc(O)cc1=O |
| 45.8 (≈ 143 µM) | CC(=O)c1ccccc1OCCCOc1cccc2cccnc12 |
| 5.1 (≈ 15.7 µM) | CS(=O)(=O)c1ccc(Cl)c(NC(=O)Nc2ccccc2)c1 |
| 6 (≈ 22.5 µM) | Cc1ccc(-c2c[nH]c(=S)n2-c2ccccc2)cc1 |
| > 68 | Cc1ccc(C(=O)NCC(=O)Nc2ccc(S(=O)(=O)Nc3cc(C)nc(C)n3)cc2)cc1 |
| 1.4 (≈ 4.79 µM) | O=C(Nc1cccc2ccccc12)c1cccc([N+](=O)[O-])c1 |
| 43.4 (≈ 132 µM) | Cc1cc2nc(-c3ccc(=O)[nH]c3)n(Cc3ccccc3)c2cc1C |
| > 49.9 | CN1CCN(CCOc2ccc(-c3ccccc3)cc2)CC1.Cl |
| 13.6 (≈ 43.7 µM) | CCOCCCNC(=O)C1c2ccccc2Oc2ccccc21 |
| 8.4 (≈ 28 µM) | Nc1cccc2c1C(=O)N(CCOc1ccc(F)cc1)C2=O |
| 1.3 (≈ 3.63 µM) | CC1CCN(S(=O)(=O)c2cccc(C(=O)Nc3ccccc3)c2)CC1 |
| > 58.6 | Cc1ccnn1-c1ccc(C(=O)NCc2ccccc2CN2CCOCC2)cc1 |
| 27 (≈ 80.7 µM) | Cc1ccc(N2C(=O)C(CN3CCCCC3)C2c2ccccc2)cc1 (stereo not given) |
| > 40.5 | N#Cc1ccccc1CSc1ncccc1C(=O)O |
| > 53 | O=c1c2ccccc2cnn1Cc1n[nH]c(=S)n1-c1ccccc1F |
| 4.2 (≈ 12.2 µM) | CN(C)c1cccc(C(=O)N(Cc2ccccc2)Cc2ccccc2)c1 |
| 3.6 (≈ 12.7 µM) | O=C(c1ccc(F)cc1)c1ccc(N2CCCCC2)cc1 |
| 2.6 (≈ 8.04 µM) | COC(=O)C1=CNC=C(C(=O)OC)C1c1cccc2ccccc12 |
| 0.5 (≈ 1.86 µM) | COC(=O)Nc1ccc2c(c1)Nc1ccccc1CC2 |
| 45.8 (≈ 134 µM) | CCN(CC)CCNC(=O)C(Oc1ccccc1)Oc1ccccc1 |
| 29.1 (≈ 83.8 µM) | COc1cccc(NC(=O)c2ccccc2NC(=O)c2ccncc2)c1 |
| 1.8 (≈ 6.31 µM) | Cc1cccc(C)c1OC(=O)Cc1ccccc1[N+](=O)[O-] |
